This note sets out measurements from patent US20250197447A1, “PEPTIDE HAVING ANTI-AGING ACTIVITY, AND USE THEREOF” (CAREGEN CO., LTD., priority 2021, published 2025).

In one test the test system is collagen (Col1a1). Put plainly: RT-PCR of collagen (Col1a1) mRNA decreased by UV irradiation in fibroblasts. The test is classed as cell-based, mouse. The following applies: NIH3T3 cells; peptide 10, 50, 100 μM before 6 J/cm^2 UVA; 6 hours culture; FIGS. 2A, 2B. As for the experimental part:
(§1) Expression of collagen, fibronectin, and elastin genes constituting the extracellular matrix (ECM) is inhibited when irradiated with UV. Therefore, it was confirmed whether the photoaging phenomenon of the cells was inhibited by confirming whether the expression levels of collagen, fibronectin, and elastin genes were restored and increased when treated with the peptide of the present invention.
(§2) First, NIH3T3 cells were seeded in a 6-well plate at a cell density of 5×10^5 cell/well, and then the cells were cultured in DMEM medium containing 10% fetal bovine serum (FBS) for 24 hours. The cultured cells were washed once with serum free DMEM medium, and the peptide of the present invention was mixed in 1 mL of the serum free DMEM medium at each of concentrations of 10, 50, and 100 μM, and dispensed into the cells. A positive control (PC) was treated with 50 μM of Quercetin instead of the above peptide.
(§3) The cells were cultured in a CO2 incubator at 37° C. for 1 hour. […] The amount of RNA isolated was quantified, 1,000 ng of RNA per tube was added, and reverse transcription into cDNA was performed using a kit (enzynomics, Cat. No.: RT200, Korea), and RT-PCR was performed using a PCR kit (enzynomics, Cat. No.: P581T, Korea). […]

Another test relates to MMP-2. The test can be described thus: Gelatin zymography of MMP-2 in culture medium after UV irradiation of fibroblasts. The test is classed as cell-based, mouse. The following applies: NIH3T3 cells, peptide 10, 50, 100 μM before 6 J/cm^2 UVA, 48 hours culture, FIGS. 4A, 4C. The method, then:
(§4) The expression of MMP-1 and MMP-2 encoding proteins related to collagen degradation is increased by ultraviolet irradiation. Therefore, it was confirmed whether the synthesis of the MMP-1 and MMP-2 proteins was inhibited again and the cell aging phenomenon was inhibited when treated with the peptide of the present invention.
(§5) First, NIH3T3 cells were seeded in a 6-well plate at a cell density of 5×10^5 cell/well, and then the cells were cultured in DMEM medium containing 10% fetal bovine serum (FBS) for 24 hours. The cultured cells were washed once with serum free DMEM medium, and the peptide of the present invention was mixed in 1 mL of the serum free DMEM medium at each of concentrations of 10, 50, and 100 μM, and dispensed into the cells. A positive control (PC) was treated with 2.5 mM of N-Acetylcysteine (NaC) instead of the above peptide.
(§6) The cells were cultured in a CO2 incubator at 37° C. for 1 hour. The medium of the cultured cells was transferred to a tube, 1 ml of PBS was added, and irradiation was performed with 6 J/cm^2 of UVA using a UV irradiator (VILBER LOURMAT, Cat No.: 3102-BSU, France). After removing PBS, 900 μL of the medium transferred to the tube was added, and culture was performed in a CO2 incubator at 37° C. for 48 hours. […]

Test [1] concerns apoptotic-inducing factors (Cleaved PARP-1, Bax, Cleaved Caspase-3). Put plainly: Western blot of apoptotic-inducing factors increased by UV irradiation in NIH3T3 fibroblasts. Conditions: peptide 10, 50, 100 μM before 6 J/cm^2 UVA, 48 hours culture, FIGS. 3A to 3D. The test is classed as cell-based, mouse. As for the experimental part: Expression of the apoptotic-inducing factors increases when irradiated with UV. Therefore, it was confirmed whether the photoaging phenomenon of the cells was inhibited and the damaged cells were regenerated by confirming whether the increased expression levels of the apoptotic-inducing factors such as cleaved PARP-1, cleaved Caspase-3, and […] decreased again when treated with the peptide of the present invention.
as §5
The cells were cultured in a CO2 incubator at 37° C. for 1 hour, the medium of the cultured cells was transferred to a tube, 1 mL of PBS was added, and then irradiation was performed with 6 J/cm^2 of UVA using a UV irradiator (VILBER LOURMAT, Cat No.: 3102-BSU, France). After removing PBS, 900 μL of the medium transferred to the tube was added again, and culture was performed in a CO2 incubator at 37° C. for 48 hours. […]
(A western blot detects proteins with antibodies after separation by electrophoresis.)

In a further test the test system is elastin. Put plainly: RT-PCR of elastin mRNA decreased by UV irradiation in fibroblasts. The class given is cell-based, mouse. The following applies: NIH3T3 cells; peptide 10, 50, 100 μM before 6 J/cm^2 UVA; 6 hours culture; FIGS. 2A, 2D. As for the experimental part: as §1, §2, §3
Test [2] has as its system MMP-1. Put plainly: Western blot of MMP-1 increased by UV irradiation in fibroblasts. The class given is cell-based, mouse. The following applies: NIH3T3 cells; peptide 10, 50, 100 μM before 6 J/cm^2 UVA; 48 hours culture; FIGS. 4A, 4B. The method, then: as §4, §5, §6
The subject of another test is fibronectin. The test can be described thus: RT-PCR of fibronectin mRNA decreased by UV irradiation in fibroblasts. The following applies: NIH3T3 cells; peptide 10, 50, 100 μM before 6 J/cm^2 UVA; 6 hours culture; FIGS. 2A, 2C. The test is classed as cell-based, mouse. The method, then: as §1, §2, §3
Test [3] relates to NIH3T3 cells (mouse fibroblast cell line). The test can be described thus: Intracellular reactive oxygen species (ROS) level after UVA irradiation, DCFH-DA / FACS. The test is classed as cell-based. The following applies: peptide 10, 50, 100 μM for 1 hour before 8 J/cm^2 UVA, 24 hours culture, FIG. 1. As for the experimental part:
The reactive oxygen species level increases when UV is irradiated. Therefore, it was confirmed whether the reactive oxygen species level decreased again and the aging phenomenon caused by oxidative stress in cells was inhibited when treated with the peptide of the present invention.
First, NIH3T3 cells (mouse fibroblast cell line) were seeded in a 6-well plate at a cell density of 5×10^5 cell/well, and then the cells were cultured in DMEM medium containing 10% fetal bovine serum (FBS) for 24 hours. The cultured cells were washed once with serum free DMEM medium, and the peptide of the present invention was mixed in 1 mL of the serum free DMEM medium at each of concentrations of 10, 50, and 100 μM, and then dispensed into the cells. A positive control (PC) was treated with 7.5 mM of N-Acetylcysteine (NaC) instead of the above peptide.
The cells were cultured in a CO2 incubator at 37° C. for 1 hour. The medium of the cultured cells was transferred to a tube, 1 ml of PBS was added, and irradiation was performed with 8 J/cm^2 of UVA using a UV irradiator (VILBER LOURMAT, Cat No.: 3102-BSU, France). After removing PBS, 900 μL of the medium transferred to the tube was treated again, and culture was performed in a CO2 incubator at 37° C. for 24 hours. […] After centrifugation, the cells were washed with PBS, and a fluorescence value was measured through FACS.

The subject of test [4] is MMP-1. Put plainly: Western blot of MMP-1 increased by heat treatment in fibroblasts. The test is classed as cell-based, mouse. The following applies: NIH3T3 cells; peptide 10, 50, 100 μM for 24 hours before 44° C. for 40 minutes; 8 hours culture; FIGS. 5A, 5B. The method, then:
The expression of MMP-1 encoding proteins related to collagen degradation increases by heat treatment. Therefore, it was confirmed whether the synthesis of the MMP-1 protein was inhibited again and the cell aging phenomenon was inhibited when treated with the peptide of the present invention.
First, NIH3T3 cells were seeded in a 6-well plate at a cell density of 5×10^5 cell/well, and then the cells were cultured in DMEM medium containing 10% fetal bovine serum (FBS) for 24 hours. The cultured cells were washed once with serum free DMEM medium, and the peptide of the present invention was mixed in 1 mL of the serum free DMEM medium at each of concentrations of 10, 50, and 100 μM, and dispensed into the cells. A positive control (PC) was treated with 2.5 mM of N-Acetylcysteine (NaC) or 2 mM of Glutathione (GSH) instead of the above peptide.
The cells were cultured in a CO2 incubator at 37° C. for 24 hours. A lid and a lower plate of the 6-well plate were sealed with a paraffin film for heat treatment, the lower plate was immersed in a water bath at 44° C., and culture was performed for 40 minutes. After removing the medium, 1 mL of the serum free DMEM medium was added, and culture was performed in a CO2 incubator at 37° C. for 8 hours. Thereafter, the cells were washed twice with PBS, and then a cell lysis buffer was added to obtain a lysate. […]

As for “LKKNGSCKRGPRTHYGQK [peptide of the present invention]”, the “mRNA expression of collagen decreased by UV irradiation” value in the test with collagen (Col1a1) is listed as “increased”. Further, in the test on MMP-2, the “expression and activity of MMP-2 increased by UV irradiation” value is listed as “inhibited”. Also, the “expression of the apoptotic-inducing factors increased in the cells damaged by UV irradiation” value in test [1] is given as “decreased”. Moreover, the “mRNA expression of elastin decreased by UV irradiation” value with elastin is “increased”. The “expression and activity of MMP-1 increased by UV irradiation” value with MMP-1 [2] is recorded as “inhibited”. The “mRNA expression of fibronectin decreased by UV irradiation” value with fibronectin is “increased”. The “intracellular reactive oxygen species level increased by ultraviolet irradiation” value in test [3] is recorded as “decreased”. In the test with MMP-1 [4], the “amount of MMP-1 protein whose expression was increased by heat treatment” value is “decreased”.
